Data from patent US20240025905A1, “SALTS OF DIHYDROPYRIMIDINE DERIVATIVES, COMPLEXES AND USES THEREOF IN MEDICINE” (SUNSHINE LAKE PHARMA CO., LTD., priority 2020, published 2024).

Tests used:
[1] = Pharmacokinetic evaluation of experimental animals after oral administration; format: in vivo, Beagle dogs; conditions: dog
Protocol: Blood samples were taken at 0.25, 0.5, 1, 2, 4, 6, 8 and 24 hours from forelimb vein after the administration, and collected in anticoagulation tube with EDTA-K2. After liquid-liquid extraction, the blood samples were quantitatively analyzed on a triple quadrupole tandem mass spectrometer using multiple reactive ion monitoring (MRM). Pharmacokinetic parameters (AUC0-t and Cmax) were calculated using a noncompartmental method by WinNonLin 6.3 software.

[2] = Stability test (high temperature, high humidity and light tests); format: physicochemical
Protocol: High temperature test: An appropriate amount of the test product was added into a flat weighing bottle and spread into a thin layer with thickness ≤5 mm. The bottle was placed at 60° C. or 40° C. for 10 days. Samples were taken at the 5th and 10th days to check the appearance, related substances and purity.
High humidity test: An appropriate amount of the test product was added into a flat weighing bottle and spread into a thin layer with thickness 5 mm. The bottle was placed at 25° C. and a relative humidity of 90%±5% for 10 days. Samples were taken at the 5th and 10th days to check the appearance, related substances and purity. At the same time, the weight of the test product before and after the test were accurately weighed to investigate the moisture absorption and deliquescence performance of the test product. Light test: An appropriate amount of the test product was added into a flat weighing bottle and spread into a thin layer with thickness ≤5 mm. The bottle was opened and placed in a light box (with UV) at the illuminance 4500±500 lx, UV light≥0.7 w/m^2 for 10 days. Samples were taken at the 5th and 10th days to check the appearance, related substances and purity.

[3] = system: HBV; conditions: PCT application WO2019076310A1; cited from earlier work

SMILES: COC(=O)C1=C(CN2CCN3C(=O)N(c4ccc(CCC(=O)O)cc4F)C[C@@H]3C2)NC(c2nccs2)=N[C@H]1c1ccc(F)cc1Cl [Compound having Formula (I), 3-(4-((S)-7-(((R)-6-(2-chloro-4-fluorophenyl)-5-(methoxycarbonyl)-2-(thiazol-2-yl)-3,6-dihydropyrimidin-4-yl)methyl)-3-oxohexahydroimidazo[1,5-a]pyrazine-2(3H)-yl)-3-fluorophenyl)propionic acid]
- AUC0-t ([1]; blood, beagle dogs, oral via capsules, 10 mg/kg, read-out: AUC0-t): 6340 ng·h/mL
- Cmax ([1]; blood, beagle dogs, oral via capsules, 10 mg/kg, read-out: Cmax): 3720 ng/mL
- absorption in the body / in animals (in words) ([1]; in vivo): unsatisfactory
- Purity (%) ([2]; 0 days): 98.61%
- Purity (%) ([2]; High humidity (90% RH), 25° C., 5 days): 98.66%
- Purity (%) ([2]; High humidity (90% RH), 25° C., 10 days): 98.75%
- Purity (%) ([2]; High temperature (60° C.), 5 days): 95.40%
- Purity (%) ([2]; High temperature (60° C.), 10 days): 94.07%
- Purity (%) ([2]; Light (4500±500 lx, UV light≥0.7 w/m^2), 5 days): 98.66%
- Purity (%) ([2]; Light (4500±500 lx, UV light≥0.7 w/m^2), 10 days): 98.20%
- stability under high temperature (in words) ([2]; high temperature (such as 60° C.)): unstable
- HBV inhibitory activity (in words) [3]: good HBV inhibitory activity
